Literature values as cited in patent US20250169750A1 (HEMOLENS DIAGNOSTICS SP. Z O.O., priority 2022, published 2025).

Experiments:
[1] = system: coronary vascular responsiveness to adenosine; details: for coronary conductance change / systemic pressure change: dog, in vivo
A2A adenosine receptors = A2A adenosine receptors (Homo sapiens, UniProt P29274)
Sequence of A2A adenosine receptors (P29274 whole entry): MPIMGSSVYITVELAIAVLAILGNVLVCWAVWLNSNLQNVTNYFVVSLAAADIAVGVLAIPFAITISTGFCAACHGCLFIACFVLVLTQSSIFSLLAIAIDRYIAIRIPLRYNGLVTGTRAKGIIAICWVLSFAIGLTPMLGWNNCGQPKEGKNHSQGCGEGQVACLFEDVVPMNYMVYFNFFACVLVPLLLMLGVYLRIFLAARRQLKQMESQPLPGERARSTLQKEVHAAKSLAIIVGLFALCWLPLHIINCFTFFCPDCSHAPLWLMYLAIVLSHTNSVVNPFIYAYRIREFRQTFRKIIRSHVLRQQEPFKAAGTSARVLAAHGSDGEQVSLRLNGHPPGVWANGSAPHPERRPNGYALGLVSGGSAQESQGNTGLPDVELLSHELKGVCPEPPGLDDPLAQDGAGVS

## COc1ccc(Cl)cc1C(=O)NCCc1ccc(S(=O)(=O)NC(=O)NC2CCCCC2)cc1 [Glibenclamide]
[1]; after Glibenclamide administration
  change of Adenosine ED50: increased dose-dependently
[1]
  coronary conductance change: reduction in coronary conductance
  systemic pressure change: increase in systemic pressure

## COC(=O)[C@@H](N)CCCNC(=N)N[N+](=O)[O-] [L-NAME, N^ω-Nitro-L-arginine methyl ester]
[1]; after 1 mg/kg or 10 mg/kg of L-NAME, vs basal condition
  change of Adenosine plasma concentration needed to reach 50% of maximal conductivity increase (ED50): increased three times
[1]
  coronary conductance change: reduction in coronary conductance
  systemic pressure change: increase in systemic pressure

## CNC(=O)c1cnn(-c2nc(N)c3ncn([C@@H]4O[C@H](CO)[C@@H](O)[C@H]4O)c3n2)c1 [Regadenoson]
400 μg bolus vs Dipyridamole 0.56 mg/kg or Adenosine 140 μg/kg/min, 15 healthy volunteers
  stress myocardial blood flow (MBF), comparison: higher values
400 μg bolus vs Dipyridamole or Adenosine
  heart rate (HR), comparison: higher values
Regadenoson vs Adenosine
  stress MBF adjusted to HR, comparison: no differences between Adenosine and Regadenoson
  stress MPR adjusted to HR, comparison: no differences between Regadenoson and Adenosine
Vs Adenosine and Dipyridamole
  unadjusted myocardial perfusion reserve (MPR), comparison: higher

## Nc1nc(N/N=C/C2CCCCC2)nc2c1ncn2[C@@H]1O[C@H](CO)[C@@H](O)[C@H]1O [Binodenoson]
A2A adenosine receptors; APA vs BND
  affinity to an Adenosine receptor (comparison): equal
A2A adenosine receptors; intravenous bolus
  duration of the action: less than 5 minutes
